Measured values: ChEMBL document CHEMBL5385897, “Computer-Aided drug design of new 2-amino-thiophene derivatives as anti-leishmanial agents” (Eur J Med Chem, 2023)

Key:
[1] = Cytotoxicity against mouse J774.A1 cells incubated for 72 hrs by MTT colorimetric assay; format: toxicity, cell-based
Leishmania amazonensis [2] = test: Antileishmanial activity against Leishmania amazonensis axenic amastigote assessed as inhibition of parasite growth incubated for 72 hrs by MTT colorimetric assay; format: functional, organism-based
Leishmania amazonensis [3] = test: Antileishmanial activity against Leishmania amazonensis promastigote assessed as inhibition of parasite growth incubated for 72 hrs by MTT colorimetric assay; format: functional, organism-based
[4] = Selectivity index, ratio of CC50 for cytotoxicity against mouse J774.A1 cells to IC50 for antileishmanial activity against Leishmania amazonensis promastigote assessed as inhibition of parasite growth; format: toxicity, cell-based; settings: read-out: Ratio CC50/IC50
[5] = Selectivity index, ratio of CC50 for cytotoxicity against mouse J774.A1 cells to IC50 for antileishmanial activity against Leishmania amazonensis axenic amastigote assessed as inhibition of parasite growth; format: toxicity, cell-based; settings: read-out: Ratio CC50/IC50

Row | SMILES | CC50 at 72 h [1] [µM] | IC50 (Leishmania amazonensis [2]) [µM] | IC50 (Leishmania amazonensis [3]) [µM] | selectivity ratio [4] | selectivity ratio [5]
1 | N#Cc1c(/N=C/c2c[nH]c3ccc(Br)cc23)sc2c1CCC2 | > 100 | > 10 | > 10 | – | –
2 | N#Cc1c(N)sc2c1CCCCC2 | 99.5 | 2.79 | – | 31.1 | 35.7
3 | N#Cc1ccsc1/N=C/c1c[nH]c2ccc(Br)cc12 | 84.7 | 0.71 | 9.7 | 8.73 | 119
4 | CC1CCc2c(sc(/N=C/c3c[nH]c4ccc(Br)cc34)c2C#N)C1 (stereo unspecified) | > 100 | 8.72 | 9.9 | > 10.1 | > 11.5
5 | N#Cc1c(/N=C/c2c[nH]c3ccc(Br)cc23)sc2c1CCNC2 | 11.2 | > 10 | > 10 | – | –
6 | N#Cc1c(N)sc2c1CCCC2 | – | > 10 | – | – | –
7 | N#Cc1c(/N=C/c2c[nH]c3ccc(Br)cc23)sc2c1CCCCCC2 | > 100 | 3.8 | 4.75 | > 21.1 | > 26.3
8 | N#Cc1c(/N=C/c2c[nH]c3ccc(Br)cc23)sc2c1CCCCCCCCCC2 | > 100 | > 10 | > 10 | – | –
9 | N#Cc1c(N)sc2c1CCCCCC2 | 43.9 | 9.8 | 1.2 | 36.6 | 4.47
10 | COc1ccc2[nH]cc(/C=N/c3sc4c(c3C#N)CCCCCC4)c2c1 | – | 2160 | 900 | – | –
